Patent publication US7989495B2, “Compositions and methods for inhibiting NF-κB mediated tumorigenicity and adhesion dependent survival of cancer cells” (University of Utah Research Foundation, priority 2002, dated 2011)
“Also recorded” adds a separate entry of the source. Peptide text beside a SMILES is read from it. * marks the point of attachment. Cbz = O=C(OCc1ccccc1)*

How the values were obtained:
Format in all cases: cell-based
[1] = system: adherent HT-29 cells; assay: Apoptosis assay (annexin V-FITC / propidium iodide flow cytometry), adherent cells
Experimental: The data points represent the average percent of annexin V-positive, propidium iodide-negative cells (of the total cells counted) from triplicate experiments. The error bars represent the standard error of the means. […] The results shown are a graphic representation of individual flow cytometry results expressed as the percentage of cells that were annexin V-positive of those that excluded propidium iodide. […] An immunoblot of the lysates for cleaved PARP was performed. Each lane represents equal total protein concentrations. […] The cells were allowed to adhere to plastic dishes for 1 hour after which they were washed gently in PBS and stained with crystal violet. The crystal violet stained cells were solubilized in deoxycholate and the absorbance detected in a spectrophotometer at 590 nm. The adherent cells were expressed as a fraction of the controls Each data point represents the average of triplicate experiments and the error bars the standard errors of the means.
(§1) Single cell suspensions were plated at 100,000 cells per well in 24-well plates in media containing DMSO, BAY 11-7082, BAY 11-7085, or MG-132 for 8-24 hours in an incubator. Alternatively, DMSO, BAY 11-7082, BAY 11-7085, or MG-132 were added to cells that were confluent and adherent for several days. The nonadherent cells were aspirated off with the media and spun for 3 minutes at 2,000 rpm in 15 ml polypropylene tubes. The adherent cells were washed twice with PBS, dispersed in trypsin, and spun down for 3 minutes at 2,000 rpm in 15 ml polypropylene tubes. The nonadherent and adherent cells were resuspended in 1× binding buffer (10 mM HEPES/NaOH, pH 7.4, 140 mM NaCl, and 2.5 mM CaCl2) to a final concentration of 10^6 cells/ml. 100 μl of the cell solution were transferred to a 5 ml culture tube and incubated with 5 μl of annexin V-FITC-conjugated monoclonal antibody (Pharmingen) and 10 μl of propidium iodide (from a 50 μg/ml stock solution made in PBS) in the dark at 25° C. for 15 minutes. 400 μl of binding buffer was added to each tube and the cells were analyzed by flow cytometry immediately. The percent of apoptosis was determined as the percent of annexin V-positive, propidium iodide-negative cells of the total cells counted.

[2] = system: cleaved PARP in HT-29 cells; assay: Immunoblot for cleaved PARP; conditions: 20 μM, 8 h
Experimental: The cells were washed twice in ice cold PBS and then lysed in 4° C. lysis buffer (50 mM HEPES, 150 mM NaCl, 1.5 mM MgCl2, 1 mM EGTA, 100 mM NaF, 10 mM Na2PO4, 1 mM Na3VO4, 10% glycerol, 1% Triton X-100, and 1 μg/ml each of aprotinin, leupeptin, chymostatin, pepstatin) and clarified at 12,000 rpm at 4° C. for 15 minutes. The lysates were normalized for total protein concentration. Aliquots of the lysates were then mixed 1:1 in sample buffer (125 mM Tris-HCl (pH 6.8), 20% glycerol. 4% sodium dodecyl sulfate, 2% beta-mercaptoethanol, 10 μg/ml bromophenol blue) and boiled for 3 minutes. The samples were loaded onto SDS-PAGE gels (7.5 or 10% acrylamide). […]
(§2) For immunodetection, the blocked blots were probed with primary antibody for 2 hours at 4° C. on a rocker. […] Alkaline phosphatase was detected by a colorimetric reaction using a BCIP (5-Bromo-4-Chloro-3-Indolyl phosphate)/NBT (Nitroblue tetrazolium) kit (Zymed).
It was confirmed in HT-29 cells that were treated with increasing concentrations of BAY 11-7085 for 24 h. After separating the HT-29 cells that remained adherent and those that became nonadherent after BAY 11-7085 treatment, the percentage of apoptotic cells was determined for each group. […]

[3] = system: cleaved PARP in HCT-116 cells; assay: Immunoblot for cleaved PARP; conditions: 20 μM, 24 hours
Experimental: The data points represent the average percent of annexin V-positive, propidium iodide-negative cells (of the total cells counted) from triplicate experiments. The error bars represent the standard error of the means. […] The results shown are a graphic representation of individual flow cytometry results expressed as the percentage of cells that were annexin V-positive of those that excluded propidium iodide. […] An immunoblot of the lysates for cleaved PARP was performed. Each lane represents equal total protein concentrations. […] The cells were allowed to adhere to plastic dishes for 1 hour after which they were washed gently in PBS and stained with crystal violet. The crystal violet stained cells were solubilized in deoxycholate and the absorbance detected in a spectrophotometer at 590 nm. The adherent cells were expressed as a fraction of the controls Each data point represents the average of triplicate experiments and the error bars the standard errors of the means. […]
as §2

[4] = system: transiently suspended HT-29 cells; assay: Apoptosis (annexin V) of transiently suspended cells allowed to readhere; conditions: HT-29; various concentrations; 4 h; compared with BAY 11-7085
Experimental: HT-29 cells that were either transiently suspended with trypsin-EDTA or adherent for three days, were treated at time zero with DMSO or 10-100 μM BAY 11-7085. The percent of apoptotic cells was determined using the annexin V flow cytometry assay and graphed versus the dose of BAY 11-7085. […] The cells were fixed and immunostained with an NF-κB p65 subunit monoclonal antibody.
The transiently suspended cells were lysed and allowed to bind to DNA oligonucleotides, containing the NF-κB consensus binding site, that were immobilized to 96-well plates. NF-κB protein bound to the oligonucleotides was detected by an antibody to the p65 subunit that only recognized p65 that is bound to DNA. The positive control was HeLa cells that were stimulated with TNFα A control was performed using excess free NF-κB oligonucleotides (Competitor). […] NF-κB binding activity was determined by the TransAM assay as in FIG. 5A. […] The data shown represent typical results of three separate experiments. […] An immunoblot for COX-2 was performed.
The percentage of apoptotic cells was determined using the annexin V assay. The data points represent the averages of three experiments; bars, ±SE. E. DLD-1 and F. HT-29 cells were transduced with an adenovirus containing the IκB super-repressor construct. After 3 days, the cells were transiently suspended and allowed to readhere in the presence of subapoptotic concentrations of BAY 11-7085 or DMSO (vehicle) for 8 h. The data are expressed as fractions of cells surviving compared with the controls (no adenovirus) and were quantitatively determined by staining the remaining adherent cells with crystal violet.
as §1
Various concentrations of BAY 11-7085 were added to HT-29 cells that were transiently suspended in trypsin-PBS for approximately 15 minutes before replating. The transiently suspended cells were quickly allowed to readhere in order to prevent anoikis. Alternatively, BAY 11-7085 was added to adherent HT-29 cell monolayers.

[5] = system: DLD-1 colon cancer cell line; assay: Cell proliferation assay (crystal violet, 590 nm); conditions: 10 and 50 μg/ml, after several days of treatment
Experimental: (§3) DLD-1, HCT-116, and HT-29 colon cancer cell lines were obtained from the ATCC collection and were cultured in Dulbecco's Modification of Eagle's Medium supplemented with 10% fetal bovine serum, glutamine, penicillin, and streptomycin. 293 cells stably transfected with COX-2 (293-COX-2) under the control of a ponasterone sensitive promoter were cultured in Dulbecco's Modification of Eagle's Medium supplemented with 10% fetal bovine serum, 400 μg/ml of zeocin, 400 μg/ml of G418, glutamine, penicillin, and streptomycin. For induction of COX-2 protein expression, 293-COX-2 cells were cultured for 48 hours in media supplemented with 1 μg/ml of ponasterone. All cells were cultured at 37° C. in a humidified incubator with a 5% CO2 atmosphere.
(§4) For the cell proliferation assay, cells were dispersed and plated at 40,000 cells/well in 96-well dishes. At various days in culture, the cells were gently washed twice with 100 μl/well of ice-cold blocking buffer (1% radioimmunoassay grade BSA in PBS) and twice with 100 μl/well of ice-cold PBS. The cells were fixed for 10 min in 100% ice-cold methanol (100 μl/well), then allowed to air-dry. The cells were stained with 100μl/well of 0.1% crystal violet in H2O for 10 minutes, then washed gently four times with dd H20 and four times with PBS. The plates were then air-dried completely. The stained cells were then solubilized in 1% sodium deoxycholate, and the plates read at 590 nm in a spectrophotometer. The absorption at 590 nm is proportional to the number of attached cells.

[6] = system: HCT-116 colon cancer cell line; assay: Cell proliferation assay (crystal violet, 590 nm); conditions: 10 and 50 μg/ml, after several days of treatment
Experimental: as §3, §4

[7] = system: HT-29 colon cancer cell line; assay: Cell proliferation assay (crystal violet, 590 nm); conditions: 10 and 50 μg/ml, after several days of treatment
Experimental: as §3, §4

| Compound | level of apoptosis (annexin V-positive, propidium iodide-negative cells) ([1]; adherent HT-29, doses up to 20 μM (MG-132 20 μM), 24 hours) | cleaved PARP in cells that remained adherent [2] | cleaved PARP in the nonadherent cells [2] | cleaved PARP in cells that remained adherent [3] | cleaved PARP in the non-adherent cells [3] | induction of apoptosis during readhesion [4] | inhibition of colon cancer cell proliferation [5] | inhibition of colon cancer cell proliferation [6] | inhibition of colon cancer cell proliferation [7] | effect of cA2 pretreatment on BAY 11-7085-induced apoptosis ([1]; HT-29, 50 μg/ml cA2 for 48 hours, then 20 μM BAY 11-7085 for 24 hours) |
| --- | --- | --- | --- | --- | --- | --- | --- | --- | --- | --- |
| CC(C)C[C@@H](C=O)NC(=O)[C@H](CC(C)C)NC(=O)[C@H](CC(C)C)NC(=O)OCc1ccccc1 [MG-132, N-[(phenylmethoxy)carbonyl]-L-leucyl-N-[(1S)-1-formyl-3-methylbutyl]-L-leucinamide] (Cbz-Leu-Leu-Leu-aldehyde) | relatively greater for MG-132 than BAY 11-7085; also recorded: caused a greater increase in apoptosis | only a small increase in cleaved PARP | large increase in cleaved PARP | only a small increase in cleaved PARP | large increase in cleaved PARP | more potently induced apoptosis | – | – | – | – |
| S=C(S)N1CCCC1 [PDTC, pyrrolidine dithiocarbamate] | – | – | – | – | – | caused apoptosis of HT-29 cells during readhesion | – | – | – | – |
| cA2: antagonistic and chimeric TNFα monoclonal antibody purchased from the clinical pharmacy; inhibits TNFα binding to TNFα receptors | – | – | – | – | – | – | significant inhibition | significant inhibition | significant inhibition | did not diminish BAY 11-7085-induced apoptosis |
